Measured values reported in patent US10538674B2, “Method of forming anti-rust or anti-bacterial film containing tannic acid derivatives” (NATIONAL INSTITUTE FOR MATERIALS SCIENCE, priority 2014, dated 2020).

How the values were obtained:
colon bacilli (E. Coli) = assay: Pasteurization/Sterilization Testing 1: E. Coli scattered on film on glass substrate; assay type: cell-based; conditions: drop-cast film on glass substrate, room temperature, 24 hours after scattering, 0 hour count 1.2×10^5
Experimental: Using TA (Comparative Example 1), TA(C6)10 (Example 6), TA(C10)10 (Example 2), and TA(C16)10 (Example 8), respectively, a film was formed by drop-casting on a 5 cm×5 cm glass substrate. Preparing a THF solution, drop-casting of the THF solution in an amount of 1.1 mg/cm^2 was followed by annealing under the conditions of 1 hour and 80° C. to prepare a drop-cast film. The TA (Comparative Example 1), TA(C6)10 (Example 6), TA(C10)10 (Example 2), and TA(C16)10 (Example 8) film was formed on the glass substrate by the aforesaid method, and colon bacilli (E. Coli) were scattered on it to observe changes in the surface of the film at room temperature. FIG. 18 is a graph representative of the results of proliferation of bacteria on the film. The cell count of colon bacilli scattered at the start (0 hour) was 1.2×10^5 CFU/mL. After the lapse of 24 hours, that cell count increased to 1.4×10^7 CFU/mL for the TA coated (control) film. […] A problem with tannic acid—known so far to be capable of pasteurization in the form of an aqueous solution—was that a tannic acid film is wrinkled up, running short of durability. […] It is here to be noted that the unit CFU/mL is an abbreviation of a colony forming unit indicative of a quantitative unit used in the inspection of bacteria in foods or a unit of the quantity of bacteria. […]

[1] = test system: methicillin-resistant Staphylococcus Aureus (MRSA); assay: Pasteurization/Sterilization Testing 1: MRSA scattered on film on glass substrate; assay type: cell-based; conditions: drop-cast film on glass substrate, 24 hours after scattering; 0 hour count 1.2 × 10^5
[2] = test system: golden staphs (S. Aureus); assay: Pasteurization/Sterilization Testing 1: S. Aureus scattered on film on glass substrate; assay type: cell-based; conditions: drop-cast film on glass substrate, 24 hours after scattering; 0 hour count 1.1 × 10^5
[3] = Solubility upon addition to water and chloroform; assay type: physicochemical
Description: Tannic acid powders (WAKO, 203-06331) were kept at the ready. FIG. 2(a) is a photograph taken of the external view of tannic acid powders, FIG. 2(b) is a photograph of the external view of tannic acid powders upon added to water, and FIG. 2(c) is a photograph of the external view of tannic acid powders upon added to chloroform. As shown in FIG. 2(a), the tannic acid powders were ocher powders. […] This tannic acid material was used for Comparative Example 1. FIG. 4(a) is a photograph taken of the external view of the derivative, and FIGS. 4(b) and 4(c) are photographs taken of the external views of the derivative upon added to water and chloroform, respectively.

SMILES: O=C(OC[C@H]1O[C@@H](OC(=O)c2cc(O)c(O)c(OC(=O)c3cc(O)c(O)c(O)c3)c2)[C@H](OC(=O)c2cc(O)c(O)c(OC(=O)c3cc(O)c(O)c(O)c3)c2)[C@@H](OC(=O)c2cc(O)c(O)c(OC(=O)c3cc(O)c(O)c(O)c3)c2)[C@@H]1OC(=O)c1cc(O)c(O)c(OC(=O)c2cc(O)c(O)c(O)c2)c1)c1cc(O)c(O)c(OC(=O)c2cc(O)c(O)c(O)c2)c1 [TA, tannic acid]
- Cell count of E. Coli, 24 hours (colon bacilli (E. Coli); listed as Control): 1.4 × 10^7 CFU/mL
- Cell count of E. Coli, 24 hours (colon bacilli (E. Coli); listed as TA coated (control)): 1.4×10^7 CFU/mL
- Cell count of MRSA, 24 hours [1]: 1.7 × 10^5 CFU/mL
- Cell count of S. Aureus, 24 hours [2]: 1.1 × 10^5 CFU/mL
- Solubility in chloroform ([3]; upon added to chloroform (CHCl3)): not in chloroform
- Solubility in water ([3]; upon added to water): dissolved in water
